Measured values from ChEMBL document CHEMBL4483862, “Open-source discovery of chemical leads for next-generation chemoprotective antimalarials” (2018).

System: Plasmodium berghei
Assay: Luciferase/luciferin-expressing antifolate-resistant parasites were used to infect a culture of HepG2 cells that were pre-incubated with compounds. Infected hepatocytes emit light due to the luciferase reaction. Assay results are presented as the percent inhibition of light emission compared to control. […]
Type: functional
Conditions: sporozoite; for IC90: read-out: LUCIFERASE INFECTION ASSAY - IC90
[1] = read-out: LUCIFERASE INFECTION ASSAY - IC50

Compound: O=[N+]([O-])c1ccc(-c2noc(CCOc3ccc(F)cc3)n2)o1
- IC50 (PBLUC_HILL_SLOPE 3.03, PBLUC_R_SQUARED 0.707, read-out: LUCIFERASE INFECTION ASSAY - IC50): 4.78 µM
- IC90: 9.89 µM

Compound: CC1CCC(C(C)C)C(N(Cc2ccccc2)C(=O)c2cccc3ccccc23)C1 (configuration not stated)
- IC50 (FFLUC_HILL_SLOPE 35.1, FFLUC_R_SQUARED 0.0345, HEPG2TOX_HILL_SLOPE 5.62, HEPG2TOX_R_SQUARED 0.422, PBLUC_HILL_SLOPE 0.939, PBLUC_R_SQUARED 0.258, read-out: LUCIFERASE INFECTION ASSAY - IC50): 6.39 µM
- IC90: > 8.26 µM

Compound: CCOC(=O)/C=C/c1ccc(NC(=O)C2CCCN2c2ncnc3ccccc23)cc1 (configuration not stated)
- IC50 (HEPG2TOX_HILL_SLOPE 2.7, HEPG2TOX_R_SQUARED 0.523, PBLUC_HILL_SLOPE 3.32, PBLUC_R_SQUARED 0.679, read-out: LUCIFERASE INFECTION ASSAY - IC50): 6.13 µM
- IC90: > 10 µM

Compound: Cc1cc[n+](CC(=O)Nc2ccc(OC(F)F)cc2)c2ccccc12
- IC50 (HEPG2TOX_HILL_SLOPE 2.14, HEPG2TOX_R_SQUARED 0.242, PBLUC_HILL_SLOPE 15.8, PBLUC_R_SQUARED 0.258, read-out: LUCIFERASE INFECTION ASSAY - IC50): 1.1 µM
- IC90: 1.27 µM

Compound: O=C(Nc1ccc2c(c1)OC1(CCCCC1)O2)c1ccc[nH]c1=O
- IC50 (FFLUC_HILL_SLOPE 3.32, FFLUC_R_SQUARED 0.581, PBLUC_HILL_SLOPE 0.537, PBLUC_R_SQUARED 0.823, read-out: LUCIFERASE INFECTION ASSAY - IC50): 0.172 µM
- IC90: > 10 µM

Compound: CC(C)C(C)CCC(C)C1CC=C2C3CCC4CC(O)CCC4(C)C3CCC21C (configuration not stated)
- IC50 (HEPG2TOX_HILL_SLOPE 17.3, HEPG2TOX_R_SQUARED 0.943, PBLUC_HILL_SLOPE 11.3, PBLUC_R_SQUARED 0.846, read-out: LUCIFERASE INFECTION ASSAY - IC50): 0.284 µM
- IC90: 0.344 µM

Compound: COc1cc(NC(=O)COC(=O)c2c(C)nn(Cc3ccc(Cl)cc3Cl)c2Cl)c(C)cc1[N+](=O)[O-]
- IC50 (FFLUC_HILL_SLOPE 1.94, FFLUC_R_SQUARED 0.846, read-out: LUCIFERASE INFECTION ASSAY - IC50): > 10 µM
- IC90: > 10 µM

Compound: Cc1ccc(NS(=O)(=O)c2ccc(NN=CC3C(=O)N(c4cccc(C(F)(F)F)c4)C(=O)c4ccccc43)c([N+](=O)[O-])c2)c(C)c1 (configuration not stated)
- IC50 (PBLUC_HILL_SLOPE 19.2, PBLUC_R_SQUARED 0.393, read-out: LUCIFERASE INFECTION ASSAY - IC50): 9.75 µM
- IC90: > 10 µM

Compound: Cc1cc(C(=O)CN(C)S(=O)(=O)c2cccs2)c(C)n1-c1ccccn1
- IC50 (PBLUC_HILL_SLOPE 0.948, PBLUC_R_SQUARED 0.586, read-out: LUCIFERASE INFECTION ASSAY - IC50): 2.02 µM
- IC90: > 10 µM

Compound: Cc1nn(Cc2ccccc2Cl)c2sc(C(=O)NC3CCN(Cc4ccccc4)CC3)cc12
- IC50 [1]: > 10 µM
- IC90: > 10 µM

Compound: COC(=O)c1cccc(OC(=O)/C=C/c2ccc(-c3ccccc3)s2)c1
- IC50 [1]: > 10 µM
- IC90: > 10 µM

Compound: O=C(/C=C/c1ccccc1[N+](=O)[O-])c1cccc(C(F)(F)F)c1
- IC50 [1]: 4.89 µM
- IC90: 5.08 µM

Compound: COc1cc(OC)c(NC(=O)c2cc3ccccc3cc2OCC(=O)NC(C)c2ccccc2)cc1Cl (configuration not stated)
- IC50 [1]: > 10 µM
- IC90: > 10 µM

Compound: Cc1ccc(Cl)cc1N1C(=O)C=CC1=O
- IC50 (FFLUC_HILL_SLOPE 1.79, FFLUC_R_SQUARED 0.452, HEPG2TOX_HILL_SLOPE 16.8, HEPG2TOX_R_SQUARED 0.904, PBLUC_HILL_SLOPE 2.51, PBLUC_R_SQUARED 0.543, read-out: LUCIFERASE INFECTION ASSAY - IC50): 6.7 µM
- IC90: > 14.9 µM

Compound: Fc1ccc(CNCC2(c3ccnc(-c4ccc(Cl)cc4)c3)CC2)cc1F
- IC50 [1]: > 10 µM
- IC90: > 10 µM

Compound: CCOc1ccccc1NC(=O)c1nc(-c2ccccc2)n(-c2ccccc2)n1
- IC50 (PBLUC_HILL_SLOPE 61.7, PBLUC_R_SQUARED 0.143, read-out: LUCIFERASE INFECTION ASSAY - IC50): 3.28 µM
- IC90: 3.4 µM

Compound: CNc1nn(C(=O)Nc2cccc(C(F)(F)F)c2)cc1[N+](=O)[O-]
- IC50 (PBLUC_HILL_SLOPE 3.4, PBLUC_R_SQUARED 0.508, read-out: LUCIFERASE INFECTION ASSAY - IC50): 5.63 µM
- IC90: > 10 µM

Compound: CC1CCN(Cc2csc(NC(=O)c3ccc(SCc4cscn4)cc3)n2)CC1
- IC50 (HEPG2TOX_HILL_SLOPE 2.61, HEPG2TOX_R_SQUARED 0.966, PBLUC_HILL_SLOPE 9.48, PBLUC_R_SQUARED 0.381, read-out: LUCIFERASE INFECTION ASSAY - IC50): 7.74 µM
- IC90: 9.76 µM

Compound: N#Cc1cc([N+](=O)[O-])ccc1Sc1nnc(C2COc3ccccc3O2)n1-c1ccccc1 (configuration not stated)
- IC50 [1]: > 10 µM
- IC90: > 10 µM

Compound: N#C/C(=C\c1ccc2c(c1)OCCO2)c1ccc(C(F)(F)F)cn1
- IC50 [1]: > 10 µM
- IC90: > 10 µM

Compound: CCCCn1nc(C(=O)Nc2nc(-c3ccc(CCNC(C)=O)cc3)cs2)c2ccccc2c1=O
- IC50 [1]: > 10 µM
- IC90: > 10 µM

Compound: O=C(/C=C/c1ccc(-n2cncn2)c(F)c1)c1cccc(OC(F)F)c1
- IC50 (FFLUC_HILL_SLOPE 115, FFLUC_R_SQUARED 0.0591, PBLUC_HILL_SLOPE 174, PBLUC_R_SQUARED 0.383, read-out: LUCIFERASE INFECTION ASSAY - IC50): 5.39 µM
- IC90: 5.45 µM

Compound: CCn1cc(C(=O)N[C@@H](C)C(=O)OC)c(=O)c2cc3c(cc21)OCO3
- IC50 (FFLUC_HILL_SLOPE 11.2, FFLUC_R_SQUARED 0.325, read-out: LUCIFERASE INFECTION ASSAY - IC50): > 9.53 µM
- IC90: > 9.53 µM

Compound: O=C(Nc1ccc(Oc2ccccc2)cc1)c1csc(C(O)c2cccc(Cl)c2)n1 (configuration not stated)
- IC50 (HEPG2TOX_HILL_SLOPE 2.05, HEPG2TOX_R_SQUARED 0.879, PBLUC_HILL_SLOPE 3.47, PBLUC_R_SQUARED 0.401, read-out: LUCIFERASE INFECTION ASSAY - IC50): 2.99 µM
- IC90: 5.62 µM

Compound: NS(=O)(=O)c1cc(C(=O)OCC(=O)Nc2ccc(OC(F)F)cc2)ccc1Cl
- IC50 (PBLUC_HILL_SLOPE 2.5, PBLUC_R_SQUARED 0.514, read-out: LUCIFERASE INFECTION ASSAY - IC50): 6.64 µM
- IC90: > 10 µM

Compound: Cc1ccc2cc(COC(=O)c3cc4c(s3)CCC(C)C4)c(Cl)nc2c1 (configuration not stated)
- IC50 [1]: > 10 µM
- IC90: > 10 µM

Compound: O=C(CN1CCN(Cc2ccc(-n3cccn3)cc2)CC1)Nc1ccc(OC(F)(F)F)cc1
- IC50 [1]: > 10 µM
- IC90: > 10 µM

Compound: COc1ccccc1Nc1ncccc1C(=O)Nc1nc2ccccc2[nH]1
- IC50 (HEPG2TOX_HILL_SLOPE 3.87, HEPG2TOX_R_SQUARED 0.988, PBLUC_HILL_SLOPE 17.6, PBLUC_R_SQUARED 0.638, read-out: LUCIFERASE INFECTION ASSAY - IC50): 3.34 µM
- IC90: 3.78 µM

Compound: OC(c1ccc(Cl)cc1)c1nnc(Nc2ccc(Oc3ccccc3)cc2)s1 (configuration not stated)
- IC50 (PBLUC_HILL_SLOPE 7.15, PBLUC_R_SQUARED 0.699, read-out: LUCIFERASE INFECTION ASSAY - IC50): 8.48 µM
- IC90: > 10 µM

Compound: COc1cccc(-c2cc3c(cn2)nc(NCCc2cc(OC)ccc2OC)n3C)c1
- IC50 (HEPG2TOX_HILL_SLOPE 2.25, HEPG2TOX_R_SQUARED 0.767, PBLUC_HILL_SLOPE 1.04, PBLUC_R_SQUARED 0.785, read-out: LUCIFERASE INFECTION ASSAY - IC50): 0.0813 µM
- IC90: 0.667 µM

Compound: CCN(Cc1ccc2c(c1)OCO2)C(=O)/C=C/c1c(C)nc2sc(C)cn12
- IC50 (PBLUC_HILL_SLOPE 2.08, PBLUC_R_SQUARED 0.691, read-out: LUCIFERASE INFECTION ASSAY - IC50): 8.61 µM
- IC90: > 10 µM

Compound: Cc1nc2cc(NC(C)C(=O)Nc3ccc([N+](=O)[O-])cc3Cl)ccc2o1 (configuration not stated)
- IC50 [1]: > 10 µM
- IC90: > 10 µM

Compound: CCN(CC)S(=O)(=O)c1cccc(-c2nnc(SCC(=O)N3CCc4ccccc43)n2-c2ccccc2)c1
- IC50 [1]: > 10 µM
- IC90: > 10 µM

Compound: Cn1ccc2cc(-c3cnc4cnc(-c5ccc(C(=O)N6CCOCC6)cc5)cn34)ccc21
- IC50 (HEPG2TOX_HILL_SLOPE 0.0832, HEPG2TOX_R_SQUARED 0.45, PBLUC_HILL_SLOPE 3.74, PBLUC_R_SQUARED 0.552, read-out: LUCIFERASE INFECTION ASSAY - IC50): 5.41 µM
- IC90: > 7.54 µM

Compound: Cc1c(-c2ccccc2)sc2[nH]c(CC(N)=O)nc(=O)c12
- IC50 (HEPG2TOX_HILL_SLOPE 1.61, HEPG2TOX_R_SQUARED 0.893, PBLUC_HILL_SLOPE 16.8, PBLUC_R_SQUARED 0.567, read-out: LUCIFERASE INFECTION ASSAY - IC50): 1.39 µM
- IC90: 1.59 µM

Compound: Nc1n[nH]c(Nc2cccc(Cl)c2Cl)c1C(=O)c1cccs1
- IC50 (PBLUC_HILL_SLOPE 0.162, PBLUC_R_SQUARED 0.284, read-out: LUCIFERASE INFECTION ASSAY - IC50): < 0.0128 µM
- IC90: 3.45 µM

Compound: CN(C)c1cccc(-c2ccc3ncc(-c4ccoc4)n3n2)c1
- IC50 (PBLUC_HILL_SLOPE 19.8, PBLUC_R_SQUARED 0.226, read-out: LUCIFERASE INFECTION ASSAY - IC50): 8.49 µM
- IC90: 9.49 µM

Compound: CCOC(=O)c1sc2sc(C(C)=O)c(C)c2c1C
- IC50 [1]: > 11.7 µM
- IC90: > 11.7 µM

Compound: CC(C)c1ccc(/C=C/C(=O)NN=c2nc[nH]c3ccccc23)cc1
- IC50 (HEPG2TOX_HILL_SLOPE 2.75, HEPG2TOX_R_SQUARED 0.845, PBLUC_HILL_SLOPE 8.02, PBLUC_R_SQUARED 0.305, read-out: LUCIFERASE INFECTION ASSAY - IC50): 8.64 µM
- IC90: > 10 µM

Compound: CC(Sc1nc(-c2ccccc2)c(-c2ccccc2)o1)C(=O)N1CCNC1=O (configuration not stated)
- IC50 [1]: > 10 µM
- IC90: > 10 µM

Compound: N#Cc1c(SCC(=O)c2ccccc2)nc2c(c1-c1cccs1)CCCC2
- IC50 (FFLUC_HILL_SLOPE 16.5, FFLUC_R_SQUARED 0.662, PBLUC_HILL_SLOPE 1.37, PBLUC_R_SQUARED 0.669, read-out: LUCIFERASE INFECTION ASSAY - IC50): 3.67 µM
- IC90: > 8.45 µM
